Laboratory results from paper PMC10066365, “Nemacol is a small molecule inhibitor of C. elegans vesicular acetylcholine transporter with anthelmintic potential” (Nature Communications, 2023).
Values joined by “and” are separate entries in the source; they are usually repeats but may differ in a detail not shown here. Identical values can stand only once.

Experiments:
[1] = tested on: C. elegans DA1316; assay: C. elegans 3-day liquid viability assay, DA1316 avr-14; avr-15; […]; assay type: in vivo, Caenorhabditis elegans; conditions: for total animals normalized to corresponding controls: DA1316
[2] = Motor phenotype time course on 60 μM Nemacol-1, EMB-8 disruption vs wild type; assay type: in vivo, Caenorhabditis elegans; conditions: N2, 60µM, count per bio rep
[3] = tested on: C. elegans emb-8(hc69); emb-8(RNAi); assay: as above; assay type: in vivo, Caenorhabditis elegans; conditions: for adult worms C1 (loose coil) / adult worms C2 (tight coil) / adult worms NP (no phene) / adult worms J (jerky-unc): count per bio rep
[4] = tested on: C. elegans; assay: as above; assay type: in vivo, Caenorhabditis elegans
[5] = tested on: C. elegans; assay: C. elegans 3-day liquid viability assay, Nemacol-1 x Ivermectin matrix, wild type; conditions: for total animals normalized to corresponding controls: N2 wild type; for nemacol-1 x ivermectin matrix dose-response raw data: ivermectin 0 (row head 0), 3 replicate columns
[6] = N2, 60µM, 1h, average of 3 biological repeats
[7] = N2, 60µM, 4h, average of 3 biological repeats
[8] = N2, 60µM, 6h, average of 3 biological repeats
[9] = N2, 60µM, 24h, average of 3 biological repeats
[10] = emb-8, 60µM, 1h, average of 3 biological repeats
[11] = emb-8, 60µM, 4h, average of 3 biological repeats
[12] = emb-8, 60µM, 6h, average of 3 biological repeats
[13] = emb-8, 60µM, 24h, average of 3 biological repeats
[14] = Caenorhabditis elegans, read-out: C. elegans viability

For `O=[N+]([O-])c1ccc(N2CCN(CC3CCCCC3)CC2)cc1` [Nemacol-1], the “total animals normalized to corresponding controls” value (from here on “total animals normalized”) ([1]; ivermectin 0 uM + nemacol-1 5.72205e-5) was 117.10, the “total animals normalized” value ([1]; ivermectin 0 uM + nemacol-1 0.0146484) was 91.26 and the “total animals normalized” value ([1]; ivermectin 0 uM + nemacol-1 3.75) was 106.04. For the same compound, the “total animals normalized” value ([1]; ivermectin 0 uM + nemacol-1 7.5) was 111.01, the “total animals normalized” value ([1]; ivermectin 0 uM + nemacol-1 15) was 100.31 and the “total animals normalized” value ([1]; ivermectin 0 uM + nemacol-1 30) was 100.23. The “total animals normalized” value ([1]; ivermectin 0 uM + nemacol-1 60) was 99.19, the “total animals normalized” value ([1]; ivermectin 0.0009375 uM + nemacol-1 0.000114441) was 112.95 and the “total animals normalized” value ([1]; ivermectin 0.0009375 uM + nemacol-1 0.0292969) was 124.80. The “total animals normalized” value ([1]; ivermectin 0.0009375 uM + nemacol-1 3.75) was 113.26, the “total animals normalized” value ([1]; ivermectin 0.0009375 uM + nemacol-1 7.5) was 122.67 and the “total animals normalized” value ([1]; ivermectin 0.0009375 uM + nemacol-1 15) was 99.45. The “total animals normalized” value ([1]; ivermectin 0.0009375 uM + nemacol-1 30) was 96.12, the “total animals normalized” value ([1]; ivermectin 0.0009375 uM + nemacol-1 60) was 95.59 and the “total animals normalized” value ([1]; ivermectin 0.001875 uM + nemacol-1 0.000228882) was 117.74. The “total animals normalized” value ([1]; ivermectin 0.001875 uM + nemacol-1 0.0585938) was 95.40, the “total animals normalized” value ([1]; ivermectin 0.001875 uM + nemacol-1 3.75) was 107.81 and the “total animals normalized” value ([1]; ivermectin 0.001875 uM + nemacol-1 7.5) was 110.79. The “total animals normalized” value ([1]; ivermectin 0.001875 uM + nemacol-1 15) was 103.40, the “total animals normalized” value ([1]; ivermectin 0.001875 uM + nemacol-1 30) was 87.76 and the “total animals normalized” value ([1]; ivermectin 0.001875 uM + nemacol-1 60) was 95.73. For the same compound, the “total animals normalized” value ([1]; ivermectin 0.00375 uM + nemacol-1 0.000457764) was 105.05, the “total animals normalized” value ([1]; ivermectin 0.00375 uM + nemacol-1 0.117188) was 110.64 and the “total animals normalized” value ([1]; ivermectin 0.00375 uM + nemacol-1 3.75) was 115.16. The “total animals normalized” value ([1]; ivermectin 0.00375 uM + nemacol-1 7.5) was 104.58, the “total animals normalized” value ([1]; ivermectin 0.00375 uM + nemacol-1 15) was 92.41 and the “total animals normalized” value ([1]; ivermectin 0.00375 uM + nemacol-1 30) was 95.26. For the same compound, the “total animals normalized” value ([1]; ivermectin 0.00375 uM + nemacol-1 60) was 95.05, the “total animals normalized” value ([1]; ivermectin 0.03 uM + nemacol-1 0.00366211) was 117.10 and the “total animals normalized” value ([1]; ivermectin 0.03 uM + nemacol-1 0.9375) was 95.99. For the same compound, the “total animals normalized” value ([1]; ivermectin 0.03 uM + nemacol-1 3.75) was 106.91, the “total animals normalized” value ([1]; ivermectin 0.03 uM + nemacol-1 7.5) was 93.50 and the “total animals normalized” value ([1]; ivermectin 0.03 uM + nemacol-1 15) was 78.16. The “total animals normalized” value ([1]; ivermectin 0.03 uM + nemacol-1 30) was 62.13, the “total animals normalized” value ([1]; ivermectin 0.03 uM + nemacol-1 60) was 54.19 and the “total animals normalized” value ([1]; ivermectin 0.06 uM + nemacol-1 0.00732422) was 74.90. For the same compound, the “total animals normalized” value ([1]; ivermectin 0.06 uM + nemacol-1 1.875) was 82.85, the “total animals normalized” value ([1]; ivermectin 0.06 uM + nemacol-1 3.75) was 87.36 and the “total animals normalized” value ([1]; ivermectin 0.06 uM + nemacol-1 7.5) was 84.34. For the same compound, the “total animals normalized” value ([1]; ivermectin 0.06 uM + nemacol-1 15) was 45.86, the “total animals normalized” value ([1]; ivermectin 0.06 uM + nemacol-1 30) was 52.87 and the “total animals normalized” value ([1]; ivermectin 0.06 uM + nemacol-1 60) was 31.96. The “synergy with Ivermectin in triple mutant compared to wild type” value ([1]; avr-14, avr-15, glc-1 triple mutant) was 0.6 fold, the “adult worms P (paralyzed)” value ([2]; 6h) was 0 and the “adult worms P (paralyzed)” value ([2]; 24h) was 0. For the same compound, the “Fraction Coiled” value [3, 6] was 0.5185, the “Fraction Jerky-Unc” value [3, 6] was 0.2778 and the “Fraction Parayzed” value [3, 6] was 0.2037. The “adult worms C1 (loose coil)” value ([3]; N2, 60µM, 1h) was 4 and 3 and 5, the “adult worms C2 (tight coil)” value ([3]; N2, 60µM, 1h) was 6 and 4 and the “adult worms NP (no phene)” value ([3]; N2, 60µM, 1h) was 0. The “Fraction Coiled” value ([3]; N2, 60µM, 1h, per bio rep) was 0.5000 and 0.5556, the “Fraction Coiled” value [3, 7] was 0.1111 and the “Fraction Jerky-Unc” value [3, 7] was 0.2963. For the same compound, the “Fraction Parayzed” value [3, 7] was 0.0185, the “adult worms J (jerky-unc)” value ([3]; N2, 60µM, 4h) was 7 and 5 and 4 and the “adult worms NP (no phene)” value ([3]; N2, 60µM, 4h) was 7 and 14 and 10. The “Fraction Jerky-Unc” value ([3]; N2, 60µM, 4h, per bio rep) was 0.2222 and 0.3889 and 0.2778, the “Fraction Coiled” value [3, 8] was 0.0556 and the “Fraction Jerky-Unc” value [3, 8] was 0.2037. For the same compound, the “Fraction Parayzed” value [3, 8] was 0.0000, the “adult worms J (jerky-unc)” value ([3]; N2, 60µM, 6h) was 3 and 5 and the “adult worms NP (no phene)” value ([3]; N2, 60µM, 6h) was 15 and 10. For the same compound, the “Fraction Jerky-Unc” value ([3]; N2, 60µM, 6h, per bio rep) was 0.1667 and 0.2778, the “Fraction Parayzed” value ([3]; N2, 60µM, 6h, per bio rep) was 0.0000 and the “Fraction Coiled” value [3, 9] was 0.0000. The “Fraction Jerky-Unc” value [3, 9] was 0.0000, the “Fraction Parayzed” value [3, 9] was 0.0000 and the “adult worms C1 (loose coil)” value ([3]; N2, 60µM, 24h) was 0. The “adult worms C2 (tight coil)” value ([3]; N2, 60µM, 24h) was 0, the “adult worms J (jerky-unc)” value ([3]; N2, 60µM, 24h) was 0 and the “adult worms NP (no phene)” value ([3]; N2, 60µM, 24h) was 18. For the same compound, the “Fraction Coiled” value ([3]; N2, 60µM, 24h, per bio rep) was 0.0000, the “Fraction Jerky-Unc” value ([3]; N2, 60µM, 24h, per bio rep) was 0.0000 and the “Fraction Parayzed” value ([3]; N2, 60µM, 24h, per bio rep) was 0.0000. For the same compound, the “Fraction Coiled” value [3, 10] was 0.5000, the “Fraction Jerky-Unc” value [3, 10] was 0.2778 and the “Fraction Parayzed” value [3, 10] was 0.2222. For the same compound, the “adult worms C1 (loose coil)” value ([3]; emb-8, 60µM, 1h) was 3 and 4, the “adult worms C2 (tight coil)” value ([3]; emb-8, 60µM, 1h) was 6 and 4 and the “adult worms J (jerky-unc)” value ([3]; emb-8, 60µM, 1h) was 5 and 4 and 6. The “adult worms NP (no phene)” value ([3]; emb-8, 60µM, 1h) was 0, the “Fraction Coiled” value ([3]; emb-8, 60µM, 1h, per bio rep) was 0.5556 and 0.5000 and 0.4444 and the “Fraction Jerky-Unc” value ([3]; emb-8, 60µM, 1h, per bio rep) was 0.3333 and 0.2778 and 0.2222. The “Fraction Coiled” value [3, 11] was 0.1481, the “Fraction Jerky-Unc” value [3, 11] was 0.3889 and the “Fraction Parayzed” value [3, 11] was 0.4630. The “adult worms NP (no phene)” value ([3]; emb-8, 60µM, 4h) was 0, the “Fraction Coiled” value [3, 12] was 0.3704 and the “Fraction Jerky-Unc” value [3, 12] was 0.2778. The “Fraction Parayzed” value [3, 12] was 0.3519, the “adult worms C2 (tight coil)” value ([3]; emb-8, 60µM, 6h) was 4 and 3 and the “adult worms NP (no phene)” value ([3]; emb-8, 60µM, 6h) was 0. The “Fraction Coiled” value [3, 13] was 0.2963, the “Fraction Jerky-Unc” value [3, 13] was 0.2222 and the “Fraction Parayzed” value [3, 13] was 0.4815. For the same compound, the “adult worms NP (no phene)” value ([3]; emb-8, 60µM, 24h) was 0, the “Fraction Coiled” value ([3]; emb-8, 60µM, 24h, per bio rep) was 0.3333 and 0.2222 and the “Fraction No Phenotype” value [4, 6] was 0.0000. For the same compound, the “Fraction No Phenotype” value ([4]; N2, 60µM, 1h, per bio rep) was 0.0000, the “Fraction No Phenotype” value [4, 7] was 0.5741 and the “Fraction No Phenotype” value ([4]; N2, 60µM, 4h, per bio rep) was 0.3889 and 0.5556 and 0.7778. The “Fraction No Phenotype” value [4, 8] was 0.7407, the “Fraction No Phenotype” value ([4]; N2, 60µM, 6h, per bio rep) was 0.8333 and 0.5556 and the “Fraction No Phenotype” value [4, 9] was 1.0000. For the same compound, the “Fraction No Phenotype” value ([4]; N2, 60µM, 24h, per bio rep) was 1.0000, the “Fraction No Phenotype” value [4, 10] was 0.0000 and the “Fraction No Phenotype” value ([4]; emb-8, 60µM, 1h, per bio rep) was 0.0000. For the same compound, the “Fraction No Phenotype” value [4, 11] was 0.0000, the “Fraction No Phenotype” value ([4]; emb-8, 60µM, 4h, per bio rep) was 0.0000 and the “Fraction No Phenotype” value [4, 12] was 0.0000. The “Fraction No Phenotype” value ([4]; emb-8, 60µM, 6h, per bio rep) was 0.0000, the “Fraction No Phenotype” value [4, 13] was 0.0000 and the “Fraction No Phenotype” value ([4]; emb-8, 60µM, 24h, per bio rep) was 0.0000. The “fold lowering of Ivermectin's EC50” value ([5]; 3-day viability, wild type) was 3 fold, the viability at 15 µM [5, 14] was 97% and the viability at 30 µM [5, 14] was 97%. For the same compound, the viability at 60 µM [5, 14] was 83%, the “global ZIP synergy score” value ([5]; Ivermectin + Nemacol-1, wild type, threshold of synergy 10) was 20.0 and the “total animals normalized” value ([5]; nemacol-1 0.9375, ivermectin 0 uM) was 1.1. For the same compound, the “total animals normalized” value ([5]; nemacol-1 1.875, ivermectin 0 uM) was 1.1, the “total animals normalized” value ([5]; nemacol-1 3.75, ivermectin 0 uM) was 1.2 and the “total animals normalized” value ([5]; nemacol-1 7.5, ivermectin 0 uM) was 1.1. The “total animals normalized” value ([5]; nemacol-1 15, ivermectin 0 uM) was 0.9, the “total animals normalized” value ([5]; nemacol-1 30, ivermectin 0 uM) was 0.9 and the “nemacol-1 x ivermectin matrix dose-response raw data” value ([5]; wt (N2) + 15 uM nemacol) was 100.0 and 76.7 and 84.0. The “nemacol-1 x ivermectin matrix dose-response raw data” value ([5]; wt (N2) + 30 uM nemacol) was 102.1 and 93.3 and 70.0, the “nemacol-1 x ivermectin matrix dose-response raw data” value ([5]; wt (N2) + 60 uM nemacol) was 119.1 and 66.7 and 70.0 and the “nemacol-1 x ivermectin matrix dose-response raw data” value ([5]; wt (N2) + 3.75 nemacol) was 102.1 and 150.0 and 114.0.
